According to PMC2154353 (The Journal of General Physiology, 2007):

Legend:
[1] = biological target: T1, MEC-4 homomeric channel (A713wt), coexpressed with MEC-2 (Caenorhabditis elegans, UniProt P24612); assay: two-electrode voltage clamp, oocytes, dose-response of current block; assay type: cell-based
T1 sequence (P24612 1-768): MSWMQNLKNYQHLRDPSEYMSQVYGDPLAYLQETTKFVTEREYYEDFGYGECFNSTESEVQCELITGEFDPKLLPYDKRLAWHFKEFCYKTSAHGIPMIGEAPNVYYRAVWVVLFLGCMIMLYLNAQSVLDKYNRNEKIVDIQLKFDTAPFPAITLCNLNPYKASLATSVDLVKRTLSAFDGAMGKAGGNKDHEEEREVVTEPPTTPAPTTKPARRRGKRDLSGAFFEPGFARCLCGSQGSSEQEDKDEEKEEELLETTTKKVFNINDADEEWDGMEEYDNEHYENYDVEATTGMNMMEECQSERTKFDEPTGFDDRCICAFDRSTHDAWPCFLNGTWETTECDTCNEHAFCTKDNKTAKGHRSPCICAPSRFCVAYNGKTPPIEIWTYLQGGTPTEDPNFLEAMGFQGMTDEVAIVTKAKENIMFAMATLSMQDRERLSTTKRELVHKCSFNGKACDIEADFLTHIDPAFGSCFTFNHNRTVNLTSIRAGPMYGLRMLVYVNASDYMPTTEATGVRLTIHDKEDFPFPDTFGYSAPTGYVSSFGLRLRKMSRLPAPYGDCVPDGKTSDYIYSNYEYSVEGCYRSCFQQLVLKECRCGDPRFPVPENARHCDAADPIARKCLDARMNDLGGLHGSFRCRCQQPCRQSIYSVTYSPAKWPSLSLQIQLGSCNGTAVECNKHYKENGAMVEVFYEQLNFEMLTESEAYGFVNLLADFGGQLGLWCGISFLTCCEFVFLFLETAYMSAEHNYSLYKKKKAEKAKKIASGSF
T1 sequence (Q27433 1-481 partner): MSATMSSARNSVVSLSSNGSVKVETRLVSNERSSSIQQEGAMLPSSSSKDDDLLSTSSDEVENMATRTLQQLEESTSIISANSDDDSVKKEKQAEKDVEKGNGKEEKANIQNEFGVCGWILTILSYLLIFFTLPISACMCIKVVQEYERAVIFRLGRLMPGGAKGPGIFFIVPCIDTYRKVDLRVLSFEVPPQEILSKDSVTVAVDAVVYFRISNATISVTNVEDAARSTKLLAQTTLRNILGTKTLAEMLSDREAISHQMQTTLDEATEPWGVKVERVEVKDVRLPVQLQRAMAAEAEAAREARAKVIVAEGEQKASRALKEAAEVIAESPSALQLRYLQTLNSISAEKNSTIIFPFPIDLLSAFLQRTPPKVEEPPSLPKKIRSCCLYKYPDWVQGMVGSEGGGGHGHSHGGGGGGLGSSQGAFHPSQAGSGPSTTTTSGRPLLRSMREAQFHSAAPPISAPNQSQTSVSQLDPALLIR

[2] = biological target: T2, MEC-4 homomeric channel (A713wt), coexpressed with MEC-2 (Caenorhabditis elegans, UniProt P24612, A713T); assay: as above; assay type: cell-based
T2 sequence (P24612 1-768 A713T): T1 sequence (P24612 1-768)
T2 sequence (Q27433 1-481 partner): T1 sequence (Q27433 1-481 partner)

SMILES | Ki [1] [µM] | Ki [2] [µM]
NC(=NCc1ccccc1)NC(=O)c1nc(Cl)c(N)nc1N [benzamil] | 0.15 ± 0.01 | 0.83 ± 0.14
N=C(N)c1ccccc1 [benzamidine] | 108 ± 3 | 196 ± 40
